Test results: patent publication US9598381B2, “SMYD2 inhibitors” (AbbVie Inc., priority 2014, dated 2017)

Each molecule was assayed against SMYD2 (Homo sapiens (Human), UniProt Q9NRG4) (assay: SMYD2 TR-FRET inhibition assay (p53 peptide + SAM, SAH detection)). Conditions: SMYD2 enzyme, p53 peptide and SAM substrates, overnight at room temperature; Tb chelate mAb/OG-SAH probe detection; read-out: TRFRET IC50.
SMYD2, sequence (Q9NRG4 whole entry): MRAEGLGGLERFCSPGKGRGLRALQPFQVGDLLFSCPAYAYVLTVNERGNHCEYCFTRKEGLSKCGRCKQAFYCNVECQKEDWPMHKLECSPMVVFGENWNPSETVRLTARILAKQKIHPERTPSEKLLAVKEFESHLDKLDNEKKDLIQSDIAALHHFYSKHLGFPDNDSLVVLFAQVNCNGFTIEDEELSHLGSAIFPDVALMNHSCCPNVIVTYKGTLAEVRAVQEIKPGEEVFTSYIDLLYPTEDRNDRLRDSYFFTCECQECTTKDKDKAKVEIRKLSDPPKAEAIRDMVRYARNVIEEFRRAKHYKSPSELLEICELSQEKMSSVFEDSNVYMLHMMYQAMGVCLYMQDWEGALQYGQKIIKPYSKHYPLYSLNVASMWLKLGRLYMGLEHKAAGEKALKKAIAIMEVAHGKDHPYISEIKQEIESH
Assay type: biochemical
Method: 5 microliters of a 2×SMYD2 enzyme solution (20 nM, […] in assay buffer) were added to each well. To the control wells was also added 5 microliters of assay buffer. […] The wells were incubated at room temperature for 30 minutes.
Into the wells of the counter screen plate was added 5 microliters 2×SAH (300 nM, S-adenosyl homocysteine (SAH)), except the control wells.
Into all wells was added 5 microliters of 2×SAM. The plates were covered and incubated overnight at room temperature. […] Analysis of the wells was by the Laser Lentha Low Volume Envision Protocol (emission wavelength of 520 nm; laser excitation wavelength of 337 nm).
In the case of `O=C(CCNCCc1ccc(Cl)c(Cl)c1)N(CCNCCN1CCCC1)C1CCCCC1` [Example 6, N-cyclohexyl-3-((3,4-dichlorophenethyl)amino)-N-(2-((2-(pyrrolidin-1-yl)ethyl)amino)ethyl)propanamide], the IC50 is reported as 12.1 µM. Work on `O=C1COc2c(CCNCCN(C(=O)CCNCCc3ccccc3)C3CCCC3)ccc(O)c2N1` [Example 3, N-cyclopentyl-N-(2-((2-(5-hydroxy-3-oxo-3,4-dihydro-2H-benzo[b][1,4]oxazin-8-yl)ethyl)amino)ethyl)-3-(phenethylamino)-propanamide] yielded an IC50 of 3.74 µM. For `O=C1COc2c(CCNCCN(C(=O)CCNCCc3ccccc3)C3CCCCC3)ccc(O)c2N1` [Example 11, N-cyclohexyl-N-(2-((2-(5-hydroxy-3-oxo-3,4-dihydro-2H-benzo[b][1,4]oxazin-8-yl)ethyl)amino)ethyl)-3-(phenethylamino)-propanamide], the IC50 was over 50 µM. Work on `O=C1COc2c(cccc2[C@H](O)CNCCN(C(=O)CCNCCc2ccc(Cl)c(Cl)c2)C2CCCCC2)N1` [Example 1a, (S)-N-cyclohexyl-3-((3,4-dichlorophenethyl)amino)-N-(2-((2-hydroxy-2-(3-oxo-3,4-dihydro-2H-benzo[b][1,4]oxazin-8-yl)ethyl)amino)-ethyl)-propanamide] yielded an IC50 of 0.023 µM. For `O=C1COc2c(cccc2C(O)CNCCN(C(=O)CCNCCc2ccc(Cl)c(Cl)c2)C2CCCCC2)N1` (racemic) [Example 1, N-cyclohexyl-3-((3,4-dichlorophenethyl)amino)-N-(2-((2-hydroxy-2-(3-oxo-3,4-dihydro-2H-benzo[b][1,4]oxazin-8-yl)ethyl)amino)ethyl)-propanamide], the IC50 was 0.065 µM. Work on `O=C1COc2c(CCNCCN(C(=O)CCNCc3ccc(Cl)c(Cl)c3)C3CCCCC3)ccc(O)c2N1` [Example 2] yielded an IC50 of 2.03 µM. `COCCC(=O)N(CCNCCc1ccc(O)c2c1OCC(=O)N2)C1CCCCC1` [Example 10, N-cyclohexyl-N-(2-((2-(5-hydroxy-3-oxo-3,4-dihydro-2H-benzo[b][1,4]oxazin-8-yl)ethyl)amino)ethyl)-3-methoxypropanamide] showed an IC50 of over 50 µM. `Cc1cn2ccccc2c1CCNCCN(C(=O)CCNCCc1cccc(Cl)c1Cl)C1CCCCC1` [Example 16, N-cyclohexyl-3-((2,3-dichlorophenethyl)amino)-N-(2-((2-(2-methylindolizin-1-yl)ethyl)amino)ethyl)propanamide] was tested, and the IC50 was 3.44 µM. `O=C1COc2c(CCNCCN(C(=O)CCNCCc3ccc(Cl)c(Cl)c3)C3CCC3)ccc(O)c2N1` [Example 15, N-cyclobutyl-3-((3,4-dichlorophenethyl)amino)-N-(2-((2-(5-hydroxy-3-oxo-3,4-dihydro-2H-benzo[b][1,4]oxazin-8-yl)ethyl)amino)-ethyl)-propanamide] showed an IC50 of 3.79 µM. Molecule `O=C(CCNCCc1ccc(Cl)c(Cl)c1)N(CCNCCCN1CCCC1)C1CCCCC1` [Example 13, N-cyclohexyl-3-((3,4-dichlorophenethyl)amino)-N-(2-((3-(pyrrolidin-1-yl)propyl)amino)ethyl)propanamide] has an IC50 of 7.42 µM. For `O=C1COc2c(CCNCCN(C(=O)CCNCCc3ccc(Cl)c(Cl)c3)C3CCCC3)ccc(O)c2N1` [Example 4, N-cyclopentyl-3-((3,4-dichlorophenethyl)amino)-N-(2-((2-(5-hydroxy-3-oxo-3,4-dihydro-2H-benzo[b][1,4]oxazin-8-yl)ethyl)amino)-ethyl)-propanamide], the IC50 was 10 µM. In the case of `O=C1COc2c(cccc2[C@@H](O)CNCCN(C(=O)CCNCCc2ccc(Cl)c(Cl)c2)C2CCCCC2)N1` [Example 1b, (R)-N-cyclohexyl-3-((3,4-dichlorophenethyl)amino)-N-(2-((2-hydroxy-2-(3-oxo-3,4-dihydro-2H-benzo[b][1,4]oxazin-8-yl)ethyl)amino)-ethyl)-propanamide], the IC50 is reported as 0.138 µM. For `O=C(CCNCCc1ccc(Cl)c(Cl)c1)N(CCN1CCN(c2cccc3c2CCN3)CC1)C1CCCCC1` [Example 12, N-cyclohexyl-3-((3,4-dichlorophenethyl)amino)-N-(2-(4-(indolin-4-yl)piperazin-1-yl)ethyl)propanamide], the IC50 was 9.83 µM. Work on `CC1CNc2c(CC(C)(C)C)c(NCCN(C(=O)CCNCCc3ccc(Cl)c(Cl)c3)C3CCCCC3)nn2C1` (stereo not drawn) [Example 8, N-cyclohexyl-3-((3,4-dichlorophenethyl)amino)-N-(2-((6-methyl-3-neopentyl-4,5,6,7-tetrahydropyrazolo[1,5-a]pyrimidin-2-yl)-amino)ethyl)-propanamide] yielded an IC50 of 32.8 µM. `O=C(CCNCCc1ccccc1)N(CCN1CC[C@H]1COc1cccnc1)C1CCCCC1` [Example 9, (S)-N-cyclohexyl-3-(phenethylamino)-N-(2-(2-((pyridin-3-yloxy)methyl)azetidin-1-yl)ethyl)propanamide] showed an IC50 of over 50 µM. `O=C(CCNCCc1ccc(Cl)c(Cl)c1)N(CCNCCCN1CCCCC1)C1CCCCC1` [Example 5, N-cyclohexyl-3-((3,4-dichlorophenethyl)amino)-N-(2-((3-(piperidin-1-yl)propyl)amino)ethyl)propanamide] was tested, and the IC50 was 11.2 µM. Molecule `CC(NCCc1ccc(Cl)c(Cl)c1)C(=O)N(CCNCc1ccc(C#N)cc1)C1CCCCC1` (stereo not drawn) [Example 7, N-(2-((4-cyanobenzyl)amino)ethyl)-N-cyclohexyl-((3,4-dichlorophenethyl)amino)propanamide] has an IC50 of 16 µM. `O=C1COc2c(CCNCCN(C(=O)CCNCCc3ccccc3)C3CCC3)ccc(O)c2N1` [Example 14, N-cyclobutyl-N-(2-((2-(5-hydroxy-3-oxo-3,4-dihydro-2H-benzo[b][1,4]oxazin-8-yl)ethyl)amino)ethyl)-3-(phenethylamino)-propanamide] gave an IC50 of over 50 µM.
